Patent US7357913B2, “Methods for detecting, prognosing, or monitoring a disorder by comparing relative flux rates of two or more biological molecules in vivo” (The Regents of the University of California, priority 2003, dated 2008)
Entries after “also recorded” stand apart in the source; their conditions may differ.

Assays:
[1] = system: human SW1573 lung cancer cells; experiment: Tumor cell proliferation in nude mice with SW1573 cells, paclitaxel; format: in vivo; conditions: increasing doses, 2H2O labeling 24 hours
Method: (§1) Nude mice were implanted with human SW1573 lung cancer cells (5×10^6 cells/animal), injected with varying doses of paclitaxel, and labeled with ^2H2O for 24 hours. Both vehicle (1:1 [v/v] solution of ethanol:cremephor EL) and paclitaxel stock (dissolved in 1:1 v/v solution of ethanol:cremephor EL) were diluted 1:6, prior to injection into animals, with sterile 0.1 M Phosphate Buffered Saline (PBS). Tumor cells and bone marrow cells were removed using techniques well known in the art and as described, supra.
(§2) Colonocytes were removed as follows: The colon was removed from animals and washed with 0.1 M Phosphate Buffered Saline (PBS), cut open, and incubated in PBS containing collagenase type2 (72 mg/mL) and DNase (10 μg/mL) at 37° C., gently shaken for 40 minutes. After incubation, tissue was gently scraped and cells were collected by centrifugation at 800×g for 5 minutes at 4° C. The pellet was homogenously suspended in 45% percoll in 1.6% JMEM medium. The suspension was applied on top of a 5 mL cushion of 45% (v/v) percoll in a 75% percoll gradient and centrifuged at 350×g for 30 minutes at room temperature. Colonocytes were collected and washed twice with PBS. Debris was then separated from the cell suspension using a […] filter. […] FIG. 11 depicts the results.

mouse bone marrow cells = experiment: Bone marrow cell proliferation in nude mice, paclitaxel; format: in vivo; conditions: SW1573, increasing doses, 2H2O labeling 24 hours
Method: as §1, §2

[2] = system: mouse colon cells (colonocytes); experiment: Colonocyte proliferation in nude mice, paclitaxel; format: in vivo; conditions: SW1573, increasing doses, 2H2O labeling 24 hours
Method: as §1, §2

liver cell = experiment: Liver cell proliferation after griseofulvin in chow; conditions: C57BL/6 mice, below the no observable effect level, 5 days
Method: (§3) Cell proliferation and collagen synthesis (turnover) were also assessed concurrently (i.e., simultaneously) in mice (C57BL/6 and Balb/c) fed griseofulvin. Griseofulvin is recognized as a hepatotoxin, inducing cell proliferation and porphyria. Mice were administered griseofulvin in their chow (1% w/w) for 5 days.

liver collagen = experiment: Liver collagen synthesis (turnover) after griseofulvin in chow; format: in vivo, mouse; conditions: C57BL/6 mice, doses tested, 5 days (data not shown)
Method: as §3

Compound	tumor cell proliferation relative to vehicle controls [1]	bone marrow cell proliferation relative to vehicle controls (mouse bone marrow cells)	colonocyte proliferation relative to vehicle controls [2]	liver cell proliferation, lowest dose / levels below the NOEL (liver cell)	liver collagen synthesis (collagen turnover) (liver collagen)
CC(=O)O[C@H]1C(=O)[C@@]2(C)[C@H]([C@H](OC(=O)c3ccccc3)[C@]3(O)C[C@H](OC(=O)[C@H](O)[C@@H](NC(=O)c4ccccc4)c4ccccc4)C(C)=C1C3(C)C)[C@]1(OC(C)=O)CO[C@@H]1C[C@@H]2O [paclitaxel]	inhibitory effect, in a dose-dependent manner; also recorded: inhibited, in a dose-dependent manner	little or no effect	inhibitory effect, in a dose-dependent manner; also recorded: inhibited, in a dose-dependent manner	–	–
COC1=CC(=O)C[C@@H](C)[C@]12Oc1c(Cl)c(OC)cc(OC)c1C2=O [griseofulvin]	–	–	–	pronounced effects and dose responsiveness; also recorded: observable effect	no increase; also recorded: no effect
